Laboratory results as given in patent US20120020958A1, “FIBCD1 FOR THE PREVENTION AND TREATMENT OF DISEASES” (Dansk Universitet, priority 2008, published 2012).
One block for each molecule: values may come before it.

Key:
mice = details: cited from earlier work
[1] = target: T1, FIBCD1 (the FReD of FIBCD1) (Homo sapiens, UniProt Q8N539); assay: Pull-down assay of FIBCD1 (FReD) with insoluble polysaccharides; type: binding; details: 20 μg FIBCD1 FReD, 2 mg insoluble substance
T1 construct: 20 μg of the FIBCD1 (the FReD of FIBCD1)
T1 sequence (Q8N539 235-458 limits assumed): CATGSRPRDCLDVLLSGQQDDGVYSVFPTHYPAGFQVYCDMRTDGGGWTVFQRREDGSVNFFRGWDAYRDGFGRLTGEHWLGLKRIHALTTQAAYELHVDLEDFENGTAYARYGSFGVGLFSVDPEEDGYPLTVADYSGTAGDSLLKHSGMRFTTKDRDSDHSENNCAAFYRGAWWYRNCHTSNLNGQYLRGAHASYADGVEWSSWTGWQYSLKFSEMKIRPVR
Description: (B) Microtiterplates were coated with LTA, mannan, peptidoglycan or NAc-BSA and increasing concentrations of FIBCD1 was added. (C) Pull-down assays where 20 μg of the FIBCD1 (the FReD of FIBCD1) or as a positive control 20 μg of wheat germ agglutinin (WGA) was added to 2 mg insoluble chitin, cellulose, zymozane or beta-glucan. […] BSA was used as control. Pellet fractions were analyzed by SDS-PAGE and Coomassie blue staining.

[2] = test system: spleen cells isolated from the ragweed-immunized mice; details: ragweed/chitin stimulation, 3 days; cited from earlier work
allergic mouse model = details: oral administration; cited from earlier work
acetylated BSA = target: T2, acetylated BSA (Bos taurus, UniProt P02769); assay: Binding of mutated forms of the FReD of FIBCD1 to acetylated BSA (ELISA); details: site directed mutagenesis of FIBCD1 FReD
T2 construct: purchased Sigma
Description: Microtiter plates were coated with acetylated BSA or BSA and blocked with TBS/Tw before being incubated with FIBCD1 samples diluted in TBS/Tw (5 mM CaCl2). The FIBCD1 samples were added from 1 μg/ml in a twofold dilution series. The signal from binding of protein to BSA was subtracted from the signal from binding to acetylated BSA. The resulting normalized signals were then expressed as a percentage of the signal from FIBCD1FReD at 1 μg/ml, which was set at 100%. The experiment was repeated three times.
Generation of HEK293 and CHO cells expressing recombinant forms of FIBCD1 In order to generate cells expressing recombinant forms of FIBCD1, the Flp-In™ system (Invitrogen) was utilized. In this system the cDNA is integrated into a specific genomic site. Flp-In™ T-REx™ HEK293 cells or CHO Flp-In™ T-REx™ (Invitrogen) was used as host cells. HEK293 cells were cultured in Dulbecco's modified Eagle medium (DMEM; Invitrogen) and CHO cells in Hams F12 medium (Invitrogen) both containing penicillin (100 units/ml), streptomycin (100 μg/ml), 2 mM L-glutamine and 10% fetal bovine serum (Invitrogen). At approximately 50% confluency, cells were co-transfected (ratio 1:9) with the pSecTag/FRT/V5-His TOPO® TA or pcDNA/FRT/V5-His TOPO® TA containing the FIBCD1 construct and the pOG44 vector encoding Flp recombinase, using the jetPEI™ transfection kit (Polyplus-transfection SAS, Illkirch cedex, France). The recombinase mediates insertion of the expression vectors into the genomic integration site. Integration of the vectors confers hygromycin resistance. Thus, 48 hours after transfection the HEK293 and CHO cells were selected for stable integration of the FIBCD1 constructs with 150 μg/ml and 800 μg/ml hygromycin B (Invitrogen), respectively. Hygromycin resistant clones were obtained after two weeks of culture. At confluence cells were transferred to DMEM or Hams F12 medium without serum. Supernatants were harvested after 72 hours of expression and analyzed by SDS-PAGE and Western blotting. […]

T2 sequence (P02769 25-607): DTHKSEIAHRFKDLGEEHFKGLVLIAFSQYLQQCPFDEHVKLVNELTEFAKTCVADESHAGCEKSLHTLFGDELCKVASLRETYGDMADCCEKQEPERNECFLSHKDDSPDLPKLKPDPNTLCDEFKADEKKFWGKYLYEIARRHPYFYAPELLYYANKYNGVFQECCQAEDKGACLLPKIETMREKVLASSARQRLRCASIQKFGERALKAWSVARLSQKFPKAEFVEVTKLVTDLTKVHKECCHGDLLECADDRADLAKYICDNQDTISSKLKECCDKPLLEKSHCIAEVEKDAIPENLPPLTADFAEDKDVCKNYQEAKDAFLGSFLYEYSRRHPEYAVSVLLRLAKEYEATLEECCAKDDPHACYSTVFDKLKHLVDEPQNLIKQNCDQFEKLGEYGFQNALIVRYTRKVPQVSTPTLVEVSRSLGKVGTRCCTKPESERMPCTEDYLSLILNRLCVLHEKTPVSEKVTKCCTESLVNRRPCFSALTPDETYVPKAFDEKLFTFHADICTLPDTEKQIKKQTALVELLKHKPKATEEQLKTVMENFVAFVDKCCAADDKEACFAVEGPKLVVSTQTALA

Molecule: AMCase: acidic mammalian chitinase, an endo-β-1,3... see b8: endo-β-1,4-N-acetylglucosaminidase
chitin-induced cell infiltration (mice; pre-treatment with AMCase): inhibited

binding of FIBCD1 in pull-down [1]: detected
Molecule: chitin
IFN-γ production [2]: increase | IL-4 levels [2]: significant decreases | IL-5 levels [2]: significant decreases | IL-10 levels [2]: significant decreases | accumulation of IL-4 and IL-13 expressing cells including Th2 cells, eosinophils and basophils (mice; instilled in the lung (or given intraperitoneally)): induced the accumulation | lung eosinophilia (allergic mouse model): down-regulates | serum IgE levels (allergic mouse model): down-regulates

B1: H415G: single mutation form of the FReD of FIBCD1 (protein)
chain: ATGSRPRDCLDVLLSGQQDDGVYSVFPTHYPAGFQVYCDMRTDGGGWTVFQRREDGSVNFFRGWDAYRDGFGRLTGEHWLGLKRIHALTTQAAYELHVDLEDFENGTAYARYGSFGVGLFSVDPEEDGYPLTVADYSGTAGDSLLKHSGMRFTTKDRDSDHSENNCAAFYRGAWWYRNCGTSNLNGQYLRGAHASYADGVEWSSWTGWQYSLKFSEMKIRPVREDR
binding of mutated FIBCD1 to NAc-BSA (acetylated BSA): completely arrogate

B2: W443S: single mutation form of the FReD of FIBCD1 (protein)
chain: ATGSRPRDCLDVLLSGQQDDGVYSVFPTHYPAGFQVYCDMRTDGGGWTVFQRREDGSVNFFRGWDAYRDGFGRLTGEHWLGLKRIHALTTQAAYELHVDLEDFENGTAYARYGSFGVGLFSVDPEEDGYPLTVADYSGTAGDSLLKHSGMRFTTKDRDSDHSENNCAAFYRGAWWYRNCHTSNLNGQYLRGAHASYADGVEWSSWTGSQYSLKFSEMKIRPVREDR
binding of mutated FIBCD1 to NAc-BSA (acetylated BSA): partially arrogated

B3: A432V: single mutation form of the FReD of FIBCD1 (protein)
chain: ATGSRPRDCLDVLLSGQQDDGVYSVFPTHYPAGFQVYCDMRTDGGGWTVFQRREDGSVNFFRGWDAYRDGFGRLTGEHWLGLKRIHALTTQAAYELHVDLEDFENGTAYARYGSFGVGLFSVDPEEDGYPLTVADYSGTAGDSLLKHSGMRFTTKDRDSDHSENNCAAFYRGAWWYRNCHTSNLNGQYLRGAHASYVDGVEWSSWTGWQYSLKFSEMKIRPVREDR
binding of mutated FIBCD1 to NAc-BSA (acetylated BSA): completely arrogate
